According to US20250339566A1, “INHIBITORS OF FIBROBLAST ACTIVATION PROTEIN” (UNIVERSITEIT ANTWERPEN, priority 2022, published 2025):

Assays:
Format in all cases: biochemical
human FAP = target: T1, human FAP (Homo sapiens, UniProt Q12884); test: FAP IC50 measurement (Z-Gly-Pro-AMC); conditions: Z-Gly-Pro-AMC 50 μM, pH 8, 15 min pre-incubation
T1 construct: the human secretion signal was replaced with the HoneyBee mellitin secretion signal; honeybee melittin secretion signal (replaces the native signal) (N); made in house; host or cells: Sf9 insect cells (baculovirus), purified from supernatant
T1 sequence (Q12884 26-760 limits assumed): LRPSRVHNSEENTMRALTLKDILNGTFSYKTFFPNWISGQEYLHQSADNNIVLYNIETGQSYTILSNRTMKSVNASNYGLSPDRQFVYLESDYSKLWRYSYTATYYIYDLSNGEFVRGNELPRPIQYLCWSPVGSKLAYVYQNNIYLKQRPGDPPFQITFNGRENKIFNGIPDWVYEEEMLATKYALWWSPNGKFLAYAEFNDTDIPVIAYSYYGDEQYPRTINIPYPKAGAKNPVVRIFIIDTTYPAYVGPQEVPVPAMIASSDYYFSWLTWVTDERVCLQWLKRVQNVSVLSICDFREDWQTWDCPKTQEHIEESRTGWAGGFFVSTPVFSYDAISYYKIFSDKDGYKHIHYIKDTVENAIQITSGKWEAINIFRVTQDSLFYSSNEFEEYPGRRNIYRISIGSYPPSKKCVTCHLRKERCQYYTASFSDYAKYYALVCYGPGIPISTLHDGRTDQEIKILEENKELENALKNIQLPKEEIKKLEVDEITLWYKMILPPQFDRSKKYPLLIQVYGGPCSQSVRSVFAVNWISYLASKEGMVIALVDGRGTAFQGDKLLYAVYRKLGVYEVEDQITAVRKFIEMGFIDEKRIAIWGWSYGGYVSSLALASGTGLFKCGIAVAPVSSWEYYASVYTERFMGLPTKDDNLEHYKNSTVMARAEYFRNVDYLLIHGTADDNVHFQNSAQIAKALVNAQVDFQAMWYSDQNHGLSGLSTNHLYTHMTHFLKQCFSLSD
Description: (§1) Used Enzymes in these Assays: • A gateway-entry clone for human FAP was purchased from Dharmacon (Accession number DQ891423) and the human secretion signal was replaced with the HoneyBee mellitin secretion signal. For transfection and expression of FAP in Sf9 insect cells the C-terminal BaculoDirect kit from LifeTechnologies was used. The enzyme was purified from the supernatant of the insect cells using immobilized Ni-chelating chromatography (GE healthcare, Diegem, Belgium), followed by anion-exchange chromatography using a 1 mL HiTrap Q and size exclusion chromatography using the Superdex 200 column (GE healthcare, Diegem, Belgium). • Human recombinant PREP was expressed in BL21(DE3) cells and purified using immobilized Co-chelating chromatography (GE healthcare), followed by anion-exchange chromatography on a 1 ml Mono Q column (GE healthcare). • DPP4 was purified from human seminal plasma. • Gateway-entry clones for human DPP8 and DPP9 were purchased from Dharmacon (Accession numbers DQ891733 and DQ892325 respectively). For transfection and expression of DPP8 and DPP9 in Sf9 insect cells the N-terminal BaculoDirect kit from LifeTechnologies was used. The enzymes were purified using immobilized Ni-chelating chromatography (GE healthcare, Diegem, Belgium), followed by anion-exchange chromatography using a 1 mL Mono Q (GE healthcare, Diegem, Belgium). • Recombinant human DPP2 was purchased from R&D.
(§2) Eight concentrations of inhibitors/probe were tested. The final DMSO concentration was kept constant during the experiment to exclude any effects. Inhibitors were pre-incubated with the enzyme for 15 minutes at 37° C., afterwards the substrate was added and the velocities of AMC release were measured kinetically at λex=380 nm, λem=465 nm for at least 10 minutes at 37° C. […] Eight concentrations of inhibitors were tested. The final DMSO concentration in kept constant during the experiment to exclude any effects. Inhibitors were pre-incubated with the enzyme for 15 minutes at 37° C., afterwards the substrate was added and the velocities of AMC release were measured kinetically at λex=380 nm, λem=465 nm for at least 10 minutes at 37° C. […] At least eight different inhibitor concentrations were used. The final DMSO concentration is kept constant during the experiment to exclude any effects. Inhibitors were pre-incubated with the enzyme for 15 minutes at 37° C., afterwards the substrate was added and the velocities of pNA release were measured kinetically at 405 nm for at least 10 minutes at 37° C. Measurements were done on the Infinite 200 (Tecan Group Ltd.) and the Magellan software was used to process the data. • For DPP2: Initial velocity measurements were carried out. Lys-Ala-pNA was used as the substrate at a concentration of 1 mM at pH 5.5 (100 mM NaAc, 10 mM EDTA, 14 μg/mL aprotinin). Inhibitors were tested at one concentration, 5 μM, being the final concentration in the well. Inhibitors were pre-incubated with the enzyme for 15 minutes at 37° C., afterwards the substrate was added and the velocities of pNA release were measured kinetically at 405 nm for at least 10 minutes at 37° C. Measurements were done on the Infinite 200 (Tecan Group Ltd.) and the Magellan software was used to process the data.

Human recombinant PREP = target: T2, Human recombinant PREP (Homo sapiens, UniProt P48147); test: PREP IC50 measurement (N-succinyl-Gly-Pro-AMC); conditions: for Selectivity index PREP: IC50(PREP)/IC50(FAP); for IC50: N-succinyl-Gly-Pro-AMC 250 μM, pH 7.4
T2 construct: made in house; host or cells: E. coli BL21(DE3)
T2 sequence (P48147 1-710): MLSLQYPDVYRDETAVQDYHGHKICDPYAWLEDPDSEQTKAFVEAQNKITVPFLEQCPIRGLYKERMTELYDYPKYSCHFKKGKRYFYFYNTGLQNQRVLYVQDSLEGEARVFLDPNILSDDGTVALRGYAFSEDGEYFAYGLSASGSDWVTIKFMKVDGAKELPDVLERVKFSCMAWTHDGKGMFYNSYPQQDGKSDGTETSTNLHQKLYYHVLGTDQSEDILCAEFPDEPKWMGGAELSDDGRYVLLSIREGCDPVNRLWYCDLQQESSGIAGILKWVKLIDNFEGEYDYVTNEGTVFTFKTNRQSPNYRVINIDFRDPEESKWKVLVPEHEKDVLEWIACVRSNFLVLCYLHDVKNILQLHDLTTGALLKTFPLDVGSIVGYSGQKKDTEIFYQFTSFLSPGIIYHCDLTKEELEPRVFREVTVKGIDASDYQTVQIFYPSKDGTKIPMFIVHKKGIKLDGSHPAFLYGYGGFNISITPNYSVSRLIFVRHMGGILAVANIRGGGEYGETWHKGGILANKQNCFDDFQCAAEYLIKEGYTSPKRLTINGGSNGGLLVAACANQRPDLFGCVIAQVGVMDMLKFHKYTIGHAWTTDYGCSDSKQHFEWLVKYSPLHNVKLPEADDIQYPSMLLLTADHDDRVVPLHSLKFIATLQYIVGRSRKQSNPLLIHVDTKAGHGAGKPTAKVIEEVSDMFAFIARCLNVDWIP
Description: as §1, §2

DPP4 = target: T3, DPP4 (Homo sapiens, UniProt P27487); test: DPP4 IC50 measurement (Ala-Pro-pNA); conditions: for IC50: Ala-Pro-pNA 25 μM, pH 7.4; for Selectivity index DPP4: IC50(DPP4)/IC50(FAP)
T3 construct: DPP4 was purified from human seminal plasma; from tissue; host or cells: human seminal plasma
Description: as §1, §2

human DPP8 = target: T4, human DPP8 (Homo sapiens, UniProt Q6V1X1); test: DPP8 IC50 measurement (Ala-Pro-pNA); conditions: for IC50: Ala-Pro-pNA 300 μM, pH 7.4, read-out: DPP8 IC50; for Selectivity index DPP8: IC50(DPP8)/IC50(FAP)
T4 construct: made in house; host or cells: Sf9 insect cells (baculovirus)
Description: as §1, §2

human DPP9 = target: T5, human DPP9 (Homo sapiens, UniProt Q86TI2); test: DPP9 IC50 measurement (Ala-Pro-pNA); conditions: for IC50: Ala-Pro-pNA 150 μM, pH 7.4; for Selectivity index DPP9: IC50(DPP9)/IC50(FAP)
T5 construct: made in house; host or cells: Sf9 insect cells (baculovirus)
Description: as §1, §2

T5 sequence (Q86TI2 whole entry): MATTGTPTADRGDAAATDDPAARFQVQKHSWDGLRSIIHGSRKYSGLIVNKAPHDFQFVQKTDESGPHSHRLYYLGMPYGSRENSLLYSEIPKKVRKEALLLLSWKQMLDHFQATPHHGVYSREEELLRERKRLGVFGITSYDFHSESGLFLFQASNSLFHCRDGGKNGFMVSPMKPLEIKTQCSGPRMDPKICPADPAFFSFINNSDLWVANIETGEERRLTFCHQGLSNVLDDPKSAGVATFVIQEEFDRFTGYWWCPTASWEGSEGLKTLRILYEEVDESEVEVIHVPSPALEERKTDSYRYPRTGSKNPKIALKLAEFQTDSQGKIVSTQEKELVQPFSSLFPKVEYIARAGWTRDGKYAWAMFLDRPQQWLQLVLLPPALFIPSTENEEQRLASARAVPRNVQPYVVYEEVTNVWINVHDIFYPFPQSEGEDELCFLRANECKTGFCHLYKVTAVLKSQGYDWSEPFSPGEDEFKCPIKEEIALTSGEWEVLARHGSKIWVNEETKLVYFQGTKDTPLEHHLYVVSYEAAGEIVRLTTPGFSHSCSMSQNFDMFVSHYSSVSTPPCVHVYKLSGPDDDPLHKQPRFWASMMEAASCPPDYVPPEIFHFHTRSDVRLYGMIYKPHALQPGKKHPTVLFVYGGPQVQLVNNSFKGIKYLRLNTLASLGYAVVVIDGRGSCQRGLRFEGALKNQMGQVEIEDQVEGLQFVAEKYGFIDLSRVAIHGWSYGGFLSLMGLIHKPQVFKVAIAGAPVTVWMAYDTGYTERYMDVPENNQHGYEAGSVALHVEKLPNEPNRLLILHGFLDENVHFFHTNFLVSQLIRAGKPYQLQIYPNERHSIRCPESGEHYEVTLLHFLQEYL
T3 sequence (P27487 whole entry): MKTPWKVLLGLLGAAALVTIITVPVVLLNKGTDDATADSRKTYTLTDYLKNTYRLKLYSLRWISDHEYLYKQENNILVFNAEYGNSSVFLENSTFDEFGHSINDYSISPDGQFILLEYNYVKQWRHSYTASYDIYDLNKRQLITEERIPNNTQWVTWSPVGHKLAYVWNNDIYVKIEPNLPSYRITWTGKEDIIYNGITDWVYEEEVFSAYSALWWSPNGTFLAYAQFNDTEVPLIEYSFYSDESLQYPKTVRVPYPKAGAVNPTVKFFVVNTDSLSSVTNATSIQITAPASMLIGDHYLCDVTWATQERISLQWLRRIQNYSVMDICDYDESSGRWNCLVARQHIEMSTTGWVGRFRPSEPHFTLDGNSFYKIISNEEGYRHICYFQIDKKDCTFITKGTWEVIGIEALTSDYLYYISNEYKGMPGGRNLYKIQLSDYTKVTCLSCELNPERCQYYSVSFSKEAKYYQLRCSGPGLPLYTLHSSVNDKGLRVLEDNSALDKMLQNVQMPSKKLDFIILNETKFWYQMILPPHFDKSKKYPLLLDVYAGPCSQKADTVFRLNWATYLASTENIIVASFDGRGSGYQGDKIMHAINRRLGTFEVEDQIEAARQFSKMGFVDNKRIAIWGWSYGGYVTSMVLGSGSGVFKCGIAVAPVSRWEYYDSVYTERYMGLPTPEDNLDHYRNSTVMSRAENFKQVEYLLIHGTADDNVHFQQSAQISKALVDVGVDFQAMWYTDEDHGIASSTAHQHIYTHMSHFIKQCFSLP
T4 sequence (Q6V1X1 whole entry): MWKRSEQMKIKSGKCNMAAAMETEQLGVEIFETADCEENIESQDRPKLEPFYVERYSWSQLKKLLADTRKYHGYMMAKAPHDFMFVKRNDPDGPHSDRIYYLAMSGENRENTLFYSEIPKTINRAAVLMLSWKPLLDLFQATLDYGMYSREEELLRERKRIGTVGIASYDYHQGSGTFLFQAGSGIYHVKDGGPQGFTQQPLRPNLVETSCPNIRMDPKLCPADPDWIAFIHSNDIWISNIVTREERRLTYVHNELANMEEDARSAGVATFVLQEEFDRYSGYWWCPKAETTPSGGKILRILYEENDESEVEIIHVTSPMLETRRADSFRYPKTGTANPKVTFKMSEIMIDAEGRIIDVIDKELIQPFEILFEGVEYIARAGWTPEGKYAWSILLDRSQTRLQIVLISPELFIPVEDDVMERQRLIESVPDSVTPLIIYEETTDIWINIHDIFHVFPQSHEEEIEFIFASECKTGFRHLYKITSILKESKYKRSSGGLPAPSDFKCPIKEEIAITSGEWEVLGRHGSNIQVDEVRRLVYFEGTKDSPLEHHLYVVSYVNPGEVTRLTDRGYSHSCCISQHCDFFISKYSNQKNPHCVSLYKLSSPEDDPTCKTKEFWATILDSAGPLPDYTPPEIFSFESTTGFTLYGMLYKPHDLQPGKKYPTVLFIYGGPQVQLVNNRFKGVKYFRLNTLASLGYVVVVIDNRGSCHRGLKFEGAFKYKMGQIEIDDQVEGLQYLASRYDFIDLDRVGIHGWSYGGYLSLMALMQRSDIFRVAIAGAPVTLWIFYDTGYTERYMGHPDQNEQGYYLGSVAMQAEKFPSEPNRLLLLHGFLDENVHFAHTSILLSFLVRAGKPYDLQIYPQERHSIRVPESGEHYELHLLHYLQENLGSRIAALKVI

| IC50 (human FAP) [nM] | Selectivity index PREP (Human recombinant PREP) | IC50 (Human recombinant PREP) [nM] | IC50 (DPP4) [nM] | Selectivity index DPP4 (DPP4) | IC50 (human DPP8) [nM] | Selectivity index DPP8 (human DPP8) | IC50 (human DPP9) [nM] | Selectivity index DPP9 (human DPP9) | SMILES |
| --- | --- | --- | --- | --- | --- | --- | --- | --- | --- |
| 0.95 ± 0.1 | >10000 | > 10000 | > 10000 | >10000 | > 10000 | >10000 | > 1000 | >1000 | C[N+]1(CCCOc2ccc3nccc(C(=O)NCC(=O)N4CC(F)(F)C[C@H]4C#N)c3c2)CCN(C(=O)c2ccc(F)cc2)CC1 [Compound 14, (S)-1-(3-((4-((2-(2-cyano-4,4-difluoropyrrolidin-1-yl)-2-oxoethyl)carbamoyl)quinolin-6-yl)oxy)propyl)-4-(4-fluorobenzoyl)-1-methylpiperazin-1-ium] |
| 0.27 ± 0.02 | >36000 | > 10000 | > 10000 | >36000 | > 10000 | >36000 | > 10000 | >36000 | C[N+](C)(C)CCOCCOCCOc1ccc2nccc(C(=O)NCC(=O)N3CC(F)(F)C[C@H]3C#N)c2c1.Cc1ccc(S(=O)(=O)[O-])cc1 [Compound 7, (S)-2-(2-(2-((4-((2-(2-cyano-4,4-difluoropyrrolidin-1-yl)-2-oxoethyl)carbamoyl)quinolin-6-yl)oxy)ethoxy)ethoxy)-N,N,N-trimethylethan-1-aminium 4-methylbenzenesulfonate] |

| SMILES | IC50 (human FAP) [nM] | Selectivity index PREP (Human recombinant PREP) | IC50 (Human recombinant PREP) [nM] | IC50 (DPP4) [nM] | Selectivity index DPP4 (DPP4) | IC50 (human DPP8) [nM] | Selectivity index DPP8 (human DPP8) | IC50 (human DPP9) [nM] | Selectivity index DPP9 (human DPP9) |
| --- | --- | --- | --- | --- | --- | --- | --- | --- | --- |
| CC(C)(C)OC(=O)N1CC[N+](C)(CCCOc2ccc3nccc(C(=O)NCC(=O)N4CC(F)(F)C[C@H]4C#N)c3c2)CC1 [Compound 11, (S)-4-(tert-butoxycarbonyl)-1-(3-((4-((2-(2-cyano-4,4-difluoropyrrolidin-1-yl)-2-oxoethyl)carbamoyl)quinolin-6-yl)oxy)propyl)-1-methylpiperazin-1-ium iodide] | 0.44 ± 0.05 | >22000 | > 10000 | > 10000 | >22000 | > 1000 | >2200 | 620 ± 80 | >2200 |
